# From patent US11090389B2, “Mitochondrially targeted PARP inhibitor, and uses thereof” (University of Pittsburgh—Of the Commonwealth System of …, priority 2016, dated 2021)
# Key:
# primary cortical neurons [1] = experiment: Oxygen-glucose deprivation (OGD) in primary cortical neurons, LDH release; format: cell-based, rat
# Description: (§1) To model ischemia-reperfusion in vitro, culture medium was replaced with a pre-equilibrated low glucose (0.5 mM) medium. Neurons were transferred into a sealed hypoxic chamber (Coy Laboratory Products Inc., Grass Lake, Mich.) set to an atmosphere of 95% N2 with 5% CO2 at 37° C. for 2 h. After OGD neurons were removed from the chamber and returned to the incubator.
# To determine whether mitochondria-targeting XJB-veliparib can promote neuronal survival in ischemia-like conditions in vitro, primary cortical neurons at 12 DIV were subjected to OGD. Cultured neurons were exposed to a hypoxic and glucose-depleted environment for 2 h, followed by normal culture conditions for 24 h to mimic ischemia/reperfusion injury. […] Specifically, 10 nM XJB-veliparib reduced cell death by 67% (LDH release 12.4±3.1% vs. 38.0±2.5%, 10 nM XJB-veliparib vs. vehicle; mean±SD; P<0.05).
# [2] = system: mouse embryo fibroblasts (MEF); experiment: γ-irradiation-induced mitochondrial DNA damage in MEFs (qPCR); format: cell-based; conditions: 20 μM for 30 min prior to 10 Gy IR
# Description: PARylation of mtDNA repair enzymes, polymerase-γ and exo/endonucleaseG, by mt-PARP1 is thought interfere with normal mtDNA repair. […] Cells were harvested and DNA extracted 4 and 24 h post-IR. […] ANOVA, *p<0.05, **p<0.01.
# primary cortical neurons [3] = experiment: Mitochondrial and cytosolic NAD+ concentration in primary cortical neurons after OGD; format: cell-based, rat; conditions: for mitochondrial NAD+ stores after OGD: 10 nM before OGD, measured 24 h after OGD
# Description: FIG. 8. Mitochondrial and cytosolic NAD^+ concentration in primary cortical neurons after OGD. […] NAD+ concentration measured 24 h after OGD. Assay performed in duplicate.
# as §1
# HT22 cells = experiment: Glutamate-induced ferroptotic cell death in HT22 cells, LDH release; format: cell-based, mouse; conditions: 5 mM glutamate; for effect on glutamate-induced ferroptosis: LDH release at 24 h
# Description: HT22 cells were cultured at 37° C. in Dulbecco's modified Eagle's medium (DMEM) (Invitrogen Inc., Carlsbad, Calif.) supplemented with 10% fetal bovine serum (FBS) (Thermo Fisher Scientific, San Jose, Calif.) and 1% penicillin-streptomycin (ATCC, Manassas, Va.) in an atmosphere containing 5% CO2. Cells were cultured for 24 to 48 hr before use.
# [4] = system: mouse embryo fibroblasts (MEF); experiment: IR-induced cell death in mouse embryo fibroblasts, Annexin V/PI flow cytometry; format: cell-based; conditions: for survival after IR: 10, 20 μM for 30 min prior to 10 Gy IR, survival at 48 h, mean±SD, vehicle 68.4%±2.2
# Description: MEF cells were treated with 10, 20 μM XJB-veliparib for 30 min prior to 10 Gy IR (309 R/min, Cs137 source), media was changed to drugless media 4 h post-IR. Survival was assessed at 48 h by Annexin V-FTIC/PI flow cytometry. […] Mean±SD, *p<0.05, ****p<0.0001.
# primary cortical neurons [5] = experiment: Cellular localization of poly(ADP-ribose) polymers after OGD (immunofluorescence, confocal and STED microscopy); format: cell-based, rat; conditions: 10 nM, OGD 2 h; for PAR immunofluorescence after OGD (confocal): triplicate
# Description: Neurons grown on poly-D-lysine coated glass coverslips were fixed in 2% paraformaldehyde and permeabilized with TritonX-100. Coverslips were then incubated in a 1:200 dilution of mouse monoclonal antibody against PAR (SA216, ENzo Life Sciences, Inc., Farmingdale, N.Y.) and an antibody against TOMM20 (Abcam, Cambridge, Mass.) followed by incubation in the appropriate secondary antibodies. Cell nuclei were labelled with 4′,6 diamidino-2-phenylindole (DAPI) for standard confocal microscopy or DRAQ5 (both from ThermoFisher Scientific, Waltham, Mass.) for STED microscopy. Images were collected using an Olympus Fluoview 1000 confocal microscope (Olympus Corporation of the Americas, Center Valley, Pa.).
# For STED imaging a Leica TCS SP8 super resolution STED microscope with a pulsed white light laser and AOBS detection system was used (Leica Microsystems, Wetzlar, Germany). Images were collected using the 775 nm STED laser line with 30% 3D STED using the Leica STED WHITE oil objective lens (HC PL APO 100×/1.40 OIL) with a 200 Hz scan speed and 2× line averaging. Pixel size was set to 45 nm/pixel, step size was set to […], and pinhole was set at 132.8 μm (0.875 AU). TOMM20 was visualized using Alexa Fluor 555, exciting at 553 nm and detecting between 558-599 nm and temporally gate between […]. PAR was visualized with Alexa Fluor 594, exciting at 598 nm and detecting between 603-666 nm and temporally gated between 0.3-6.0 nsec. DRAQ5 (ThermoFisher Scientific, Waltham, Mass.) was excited at 662 and detected between 667 to 780 nm and temporally gated between 0.3-6.0 nsec. Channels were collected between stacks, sequentially.
# The cellular localization of poly(ADP-ribose) (PAR) polymers, a footprint of PARP activation, was examined in primary cortical neurons after OGD using immunohistochemistry and confocal microscopy.
# To evaluate the impact of XJB-veliparib on mitochondrial structure after OGD, we used stimulation emission depletion (STED) microscopy and immunohistochemistry. Primary rat cortical neurons were treated with 10 nM XJB-veliparib or vehicle and then exposed to OGD for 2 h.
# [6] = system: rat primary cortical neurons; experiment: Cytotoxicity in rat primary cortical neurons, LDH release at 24 h; conditions: for concentration at which neurotoxicity (defined as >10% cell death) was seen: n=6/group
# Description: Cytotoxicity was assessed by LDH release from dying neurons at 24 h.
# PARP1 [7] = molecular target: T1, PARP1 (Homo sapiens, UniProt P09874); experiment: PARP1 activity, commercial assay (Trevigen), histone-coated wells with active PARP1 enzyme and NAD+; format: biochemical; conditions: active PARP1 enzyme; triplicate; FIG. 4
# T1 sequence (P09874 whole entry): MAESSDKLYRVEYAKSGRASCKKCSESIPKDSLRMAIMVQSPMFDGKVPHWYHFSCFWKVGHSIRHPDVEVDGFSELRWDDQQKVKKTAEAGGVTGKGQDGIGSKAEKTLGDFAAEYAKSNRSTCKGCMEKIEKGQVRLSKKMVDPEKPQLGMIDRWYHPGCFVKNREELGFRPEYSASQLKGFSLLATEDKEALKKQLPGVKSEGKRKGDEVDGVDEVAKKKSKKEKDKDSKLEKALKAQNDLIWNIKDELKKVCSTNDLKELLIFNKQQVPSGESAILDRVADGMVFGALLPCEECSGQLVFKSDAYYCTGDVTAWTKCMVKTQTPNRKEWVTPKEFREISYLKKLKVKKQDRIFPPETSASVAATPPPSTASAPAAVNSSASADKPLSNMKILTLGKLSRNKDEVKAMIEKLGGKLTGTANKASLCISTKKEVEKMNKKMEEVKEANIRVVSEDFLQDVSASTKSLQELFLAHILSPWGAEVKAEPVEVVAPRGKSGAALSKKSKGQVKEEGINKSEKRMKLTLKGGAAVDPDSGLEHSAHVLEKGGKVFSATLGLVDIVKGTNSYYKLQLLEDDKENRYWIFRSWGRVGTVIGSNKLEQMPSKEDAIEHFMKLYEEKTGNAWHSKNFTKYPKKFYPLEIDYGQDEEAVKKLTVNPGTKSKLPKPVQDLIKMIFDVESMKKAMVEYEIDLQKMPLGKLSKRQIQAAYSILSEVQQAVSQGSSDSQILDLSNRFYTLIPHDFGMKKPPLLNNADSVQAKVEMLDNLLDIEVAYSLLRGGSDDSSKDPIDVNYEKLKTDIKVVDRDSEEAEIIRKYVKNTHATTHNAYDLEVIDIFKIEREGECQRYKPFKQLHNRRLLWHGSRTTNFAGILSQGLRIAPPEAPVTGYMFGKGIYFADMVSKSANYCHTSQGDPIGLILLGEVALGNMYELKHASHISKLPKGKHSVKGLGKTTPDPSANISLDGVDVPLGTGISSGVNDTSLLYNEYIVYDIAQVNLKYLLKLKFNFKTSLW
# Description: The capacity to inhibit PARP1 was determined using a commercial assay (Trevigen, Gaithersburg, Md.) as per manufacturer's direction.
# [8] = Mitochondrial enrichment: LC-MS quantification in mitochondria- and nuclear-enriched fractions of neurons; format: in vitro ADME, rat; conditions: neurons exposed to 100 nM for 24 h; mean±SD; n=3
# Description: Water (150 μL) was added and the solution was vortexed (15 sec) and set aside to equilibrate at room temperature (30 min). The resulting suspension was placed in an Eppendorf Centrifuge 5702 (4400 rpm, 20° C.) for 12 min. The organic layer was extracted and filtered through a 0.45 μm filter for analysis.
# The concentration was reported as pM concentration of XJB-Veliparib per 10 μg of protein with corresponding standard deviation values.
# To verify mitochondrial enrichment, rat primary cortical neurons were exposed to 100 nM XJB-veliparib for 24 h. Mitochondria- and nuclear-enriched subcellular fractions were obtained and verified by western blot using antibodies against the cytochrome oxidase subunit Vα (COX Vα) and histone H3, respectively (FIG. 6A). In mitochondria-enriched fractions, the LCMS analysis of XJB-veliparib indicated a concentration of 116±55 pmol/10 μg protein compared with 29±27 pmol/10 μg protein in nuclear-enriched fractions (FIG. 6B; mean±standard deviation [SD]; n=3 independent experiments).
# PARP1 [9] = molecular target: T1, PARP1; experiment: PARP1 inhibitory capacity of mitochondria-enriched fractions spiked with active PARP1 enzyme; format: biochemical; conditions: triplicate
smiles,measurement,setting,value
"CC1(c2nc3c(C(N)=O)cccc3[nH]2)CCCN1 (stereo in doubt) [veliparib, 1,2-[(S)-2-methylpyrrolidin-2-yl]-1H-benzimidazole-4-carboxamide, reference compound]",protection against OGD at concentrations >100 nM,primary cortical neurons [1],no additional protection
same,effect on mtDNA lesions compared to vehicle irradiated cells,[2],no effect
same,mitochondrial NAD+ stores after OGD,primary cortical neurons [3],preserve mitochondrial NAD^+ stores
same,effect on glutamate-induced ferroptosis,HT22 cells,inhibit glutamate-induced ferroptosis
same,survival after IR,[4],57.1%
same,PAR immunofluorescence after OGD (confocal),primary cortical neurons [5],reduction of PAR immunofluorescence
same,concentration at which neurotoxicity (defined as >10% cell death) was seen,[6],1 µM
"CC(C)C[C@@H](/C=C/[C@H](Cc1ccccc1)C(=O)N1CCC[C@H]1C(=O)N[C@H](C(=O)N[C@@H](CCCNC(=O)OCc1ccccc1)C(=O)NCCCNC(=O)c1cccc2[nH]c([C@]3(C)CCCN3)nc12)C(C)C)NC(=O)OC(C)(C)C [XJB-Veliparib, tert-Butyl ((4S,7S, E)-7-benzyl-2-methyl-8-((S)-2-(((S)-3-methyl-1-(((S)-15-(2-((S)-2-methylpyrrolidin-2-yl)-1H-benzo[d]imidazol-4-yl)-3,9,15-trioxo-1-phenyl-2-oxa-4, 10,14-triazapentadecan-8-yl)amino)-1-oxobutan-2-yl)carbamoyl)pyrrolidin-1-yl)-8-oxooct-5-en-4-yl)carbamate]",PARP1 inhibition compared with untargeted veliparib,PARP1 [7],similar
same,concentration in mitochondria-enriched fractions,[8],116±55 pmol/10 μg protein
same,concentration in nuclear-enriched fractions,[8],29±27 pmol/10 μg protein
same,LDH release after OGD,"primary cortical neurons [1]; 10 nM, 2 h OGD, then 24 h, mean±SD, vehicle 38.0±2.5%",12.4±3.1%
same,reduction of OGD-induced cell death vs. vehicle,"primary cortical neurons [1]; 10 nM, 2 h OGD, then 24 h normal culture",67%
same,effect on OGD-induced cell death at low nanomolar concentrations,"primary cortical neurons [1]; 2 h OGD, then 24 h",significantly attenuated OGD-induced cell death
same,protection against OGD at concentrations >100 nM,primary cortical neurons [1],no additional protection
same,number of PCR-detectable mtDNA lesions following γ-IR,"[2]; DNA extracted 4 and 24 h post-IR, vehicle 0.48±0.03",0.30±0.03
same,mitochondrial NAD+ stores after OGD,primary cortical neurons [3],preserve mitochondrial NAD^+ stores
same,efflux of NAD+ from the mitochondria to the cytosol,"primary cortical neurons [3]; 10 nM, 24 h after OGD",prevented efflux of NAD^+ from the mitochondria to the cytosol
same,efficacy vs. veliparib at higher concentrations,"HT22 cells; 10 μM, LDH at 24 h",slightly more effective than veliparib
same,effect on glutamate-induced ferroptosis,HT22 cells,inhibit glutamate-induced ferroptosis
same,concentration at which radiation damage was decreased,[4],≥ 5 µM
same,survival after IR,[4],90.1%
same,PARP1 inhibitory capacity of mitochondria-enriched fractions compared to unconjugated veliparib,PARP1 [9],greater PARP1 inhibitory capacity
same,mitochondrial architecture after OGD (STED),primary cortical neurons [5],partially preserved
same,PAR immunoreactivity after OGD vs. vehicle (STED),primary cortical neurons [5]; 1 h,reduced
same,PAR immunofluorescence after OGD (confocal),primary cortical neurons [5],reduction of PAR immunofluorescence
same,cytotoxicity compared with unconjugated veliparib,[6]; P<0.05,significantly less toxic
same,concentration at which neurotoxicity (defined as >10% cell death) was seen,[6],10 µM
